Patent US20060188895A1, “Rapid prognostic assay for malignancies treated with epidermal growth factor receptor” (The Johns Hopkins University, priority 2004, published 2006)
“And” between values parts separate entries of the source, which are not always exact repeats. Equal entries are not always repeated.

Key:
[1] = test system: A431 cells (c-fos mRNA); experiment: in vitro c-fos mRNA expression by quantitative RT-PCR; type: cell-based, human
[2] = test system: Cal27 cells (c-fos mRNA); experiment: as above; type: cell-based, human; conditions: for c-fos after longer exposure: 24-hour exposure
Procedure: (§1) Five cell lines were used: A431, Cal27, HN11, HuCCT1, and Hep2. HN11 was a gift from Dr David Sidranski's laboratory at Johns Hopkins University (Baltimore, Md.), and A431, Cal27, HuCCT1, and Hep2 were obtained from the American Tissue Culture Collection (Manassas, Va.). A431 is a squamous cell carcinoma, Cal27, HN11 and Hep2 are derived from head and neck squamous carcinomas, and HuCCT1 is a cholangiocarcinoma. The cell lines were grown in 6-well plates with DMEM supplemented with 10% fetal bovine serum (FBS) and penicillin/streptomycin. […] The cells were incubated for 1 hour, media was aspirated, and RNA collected by direct in-well lysis with 0.5 mL of RLT (Qiagen). […] IN VITRO GROWTH INHIBITION STUDIES
(§2) In vitro RNA extraction was performed on non-confluent cells after treatment. Wells were washed with PBS and RLT lysis buffer was added. Two passes from the FNA were put in lysis buffer (Mini Rneasy manufactured by Qiagen) loaded onto a column, washed and eluted into 50 μl TE pH8. Total RNA was extracted using the RNeasy™ Mini Kit (Qiagen, Valencia, Calif.). RNA was transcribed into cDNA by reverse transcription by priming with random hexamers (M-MLTV manufactured by Promega located in Madison, Wis.). The excess hexamers were removed using a column-based clean-up kit (Qiagen).
(§3) Quantitative PCR was performed on an MX3000p thermal cycler (Stratagene) using SYBR green dye method to track the progress of the reactions with ROX dye added as reference. Beta-Globin DNA specific primers were used to test DNA contamination for each sample type. Three housekeeping genes (HPRT, UBC and SDHA) were run in parallel with test genes. The amount of change in the target gene between the control and experimental conditions was found by comparing the threshold cycle (Ct) of the target gene to the geometric mean of the threshold cycles of the housekeeping genes. The geometric mean of the Cts of each of the housekeeping genes, and a change in threshold cycle (delta Ct), between conditions were calculated (dCtHouskeeping=(CtHPRT*CtUBC*CtSDHA)control−(CtHPRT*CtUBC*CtSDHA)exp). The change in threshold cycle for the target gene was calculated directly from Ct under each condition (dCttarget=(Cttarget)control−(Cttarget)exp). The efficiency of the […] raised to its dCt gave a ratio between the control and experimental conditions normalized to the housekeeping genes (Ratio=ETarget^dCtTarget/EHousekeeping^dctHousekeeping, where E=Primer efficiency, and Ct=Threshold cycle).

[3] = test system: HN11 cells (c-fos mRNA); experiment: as above; type: cell-based, human; conditions: for c-fos after longer exposure: 24-hour exposure
Procedure: as §1, §2, §3

[4] = test system: Hep2 cells (c-fos mRNA); experiment: as above; type: cell-based, human; conditions: for c-fos levels with time compared to baseline: 24-hour exposure
Procedure: as §1, §2, §3

[5] = test system: HuCCT1 cells (c-fos mRNA); experiment: as above; type: cell-based, human; conditions: for c-fos levels with time compared to baseline: 24-hour exposure
Procedure: as §1, §2, §3

[6] = test system: Cal27 cells; type: cell-based, human; conditions: CAL27 (EGF-inducible c-fos line); 0-10 μM, 72 hours, 10% FBS
[7] = test system: HN11 cells; type: cell-based, human; conditions: HN11 (EGF-inducible c-fos line); 0-10 μM, 72 hours, 10% FBS
[8] = test system: HuCCT1 cells; experiment: cells; type: cell-based; conditions: Homo sapiens, HuCCT-1, MTT, 72 hours, 10% FBS, read-out: IC50 growth inhibition
[9] = test system: Hep2 cells; experiment: cells; type: cell-based; conditions: Homo sapiens, HEp-2, MTT, 72 hours, 10% FBS, read-out: IC50 growth inhibition
[10] = test system: CAL27 xenograft tumors (c-fos mRNA); experiment: ex vivo molecular assay (c-fos) on FNA material; type: cell-based, mice; conditions: FNA material from seven CAL27 xenograft tumors; with EGF, 30 to 60 minutes
Procedure: (§4) FNAs on mice were performed according to standard cytopathologic practice under inhaled general anesthesia (isofluorane) using 10 cc syringes and 25-gauge needles. During each FNA procedure the first pass was smeared onto glass slides and used for morphologic analysis, (DiffQuik™ and Papanicoloau), and the second and third passes for RNA extraction. Eighteen A431 tumors, fourteen CAL27 tumors, eighteen HN11 tumors, fourteen HuCCT1 tumors, and sixteen Hep2 tumors were tested. FNAs were performed at baseline and after 14 days of therapy for each of the tumors. Tumor biopsies on patients were performed following an ultrasonographic-guided, FNA-assisted methodology, with on-site cytopathologic assessment of tissue adequacy at baseline and after 28 days of therapy.
In vitro RNA extraction was performed on non-confluent cells after treatment. […]
(§5) Quantitative PCR was performed on an MX3000p thermal cycler (Stratagene) using SYBR green dye method to track the progress of the reactions with ROX dye added as reference. […] The geometric mean of the Cts of each of the housekeeping genes, and a change in threshold cycle (delta Ct), between conditions were calculated (dCtHouskeeping=(CtHPRT*CtUBC*CtSDHA)control−(CtHPRT*CtUBC*CtSDHA)exp). The change in threshold cycle for the target gene was calculated directly from Ct under each condition (dCttarget=(Cttarget)control−(Cttarget)exp). […]

[11] = test system: CAL27 xenograft tumors; experiment: in vivo growth inhibition and tumor c-fos, xenograft; design: species or system athymic nude mice
Procedure: (§6) Five groups of 14-16 six-week-old female athymic nude mice (Harlan, Ind., US) were used. 1.5-5×10^6 A431, CAL27, HN11, HuCCT1, and Hep2 cells were injected subcutaneously in each flank. […].
as §4, §2, §3

[12] = test system: HN11 xenograft tumors; experiment: as above; design: species or system athymic nude mice
Procedure: as §6, §4, §2, §3

[13] = test system: Hep2 xenograft tumors; experiment: as above; design: species or system athymic nude mice
Procedure: as §6, §4, §2, §3

[14] = test system: A431 xenograft tumors; experiment: as above; design: species or system athymic nude mice
Procedure: as §6, §4, §2, §3

[15] = test system: HuCCT1 xenograft tumors; experiment: as above; design: species or system athymic nude mice
Procedure: as §6, §4, §2, §3

[16] = test system: c-fos in patient tumor samples; experiment: c-fos in paired patient tumor samples; type: in vivo, patients
Procedure: as §4, with “therapy. […]” for “therapy.”
as §5

[17] = test system: Ki67 proliferation index in patient tumor samples; experiment: Ki67 proliferation index in paired patient tumor samples (immunohistochemistry); type: in vivo, patients; conditions: patient #3; 500 mg/day (FIG. 7 legend)
Procedure: FNAs on mice were performed according to standard cytopathologic practice under inhaled general anesthesia (isofluorane) using 10 cc syringes and 25-gauge needles. During each FNA procedure the first pass was smeared onto glass slides and used for morphologic analysis, (DiffQuik™ and Papanicoloau), and the second and third passes for RNA extraction. […] FNAs were performed at baseline and after 14 days of therapy for each of the tumors. Tumor biopsies on patients were performed following an ultrasonographic-guided, FNA-assisted methodology, with on-site cytopathologic assessment of tissue adequacy at baseline and after 28 days of therapy.
Core biopsies from patients were processed using standard procedures (formalin-fixed, and paraffin embedded). Five-micron sections were used for Ki67 staining that was performed following the manufacturer's instructions (M7187 manufactured by DAKO located in Carpinteria, Calif.).

[18] = test system: metastatic or inoperable malignancy; experiment: clinical response of patients treated with gefitinib; type: in vivo; conditions: five patients; 500 mg daily; 2, 4, 2, 2 and 5+ 1-month cycles
Text: Patients were required to be 18 years of age or older, and have histologically documented metastatic or inoperable malignancy amenable to sequential biopsies, and for which there was no known curative or standard palliative regimen (or failure of such regimens have occurred). […] The scientific review board of our institution granted protocol approval and patients were required to provide written informed consent prior to enrollment into the study.

[19] = 50 mgr/kg IP once a day for 14 days
[20] = day 14 treated vs control, P<0.05
[21] = 10 μM, 1-hour exposure, with EGF
[22] = 100 mgr/kg IP once a day for 14 days
[23] = EGF 100 ng/mL, normalized to media

Question: `C#Cc1cccc(Nc2ncnc3cc(OCCOC)c(OCCOC)cc23)c1` [erlotinib] was tested. Which “c-fos after longer exposure” value ([1]; 24-hour exposure) did it give?
Answer: The value was “lasting c-fos downregulation”.

Question: And the “c-fos after longer exposure” value [2]?
Answer: Its value is “lasting c-fos downregulation”.

Question: What about the “c-fos after longer exposure” value [3] of the same molecule?
Answer: Its value is “lasting c-fos downregulation”.

Question: What about the “c-fos levels with time compared to baseline” value [4] of the same molecule?
Answer: The value was “minimally increased”.

Question: And the “c-fos levels with time compared to baseline” value [5]?
Answer: The value was “minimally increased”.

Question: And the “in vitro sensitivity (growth inhibition, MTT)” value [6]?
Answer: Its value is “high”.

Question: What about the “in vitro sensitivity (growth inhibition, MTT)” value [7] of the same molecule?
Answer: The value was “high”.

Question: What about the IC50 [8] of the same molecule?
Answer: Its IC50 is greater than 10 µM.

Question: And the IC50 [9]?
Answer: The IC50 was greater than 10 µM.

Question: And the “effect on EGF-induced c-fos upregulation” value [10]?
Answer: Its value is “abrogation of this response”.

Question: What about the tumor growth [11, 19] of the same molecule?
Answer: Its tumor growth is “growth arrest”.

Question: And the “effect on progressive increase in tumor c-fos expression” value ([11]; day 14 treated vs control, P=0.07)?
Answer: Its value is “significantly abrogate”.

Question: And the tumor growth [12, 19]?
Answer: Its tumor growth is “growth arrest”.

Question: What about the “effect on progressive increase in tumor c-fos expression” value [12, 20] of the same molecule?
Answer: Its value is “significantly abrogate”.

Question: And the tumor growth response [13, 19]?
Answer: Its tumor growth response is “no response”.

Question: And the tumor c-fos levels ([13]; 14 days of therapy)?
Answer: Its tumor c-fos levels is “unchanged”.

Question: Which results are given for `COc1cc2ncnc(Nc3ccc(F)c(Cl)c3)c2cc1OCCCN1CCOCC1` [gefitinib]?
Answer: effect on EGF-induced c-fos increment [2, 21]: abrogated; c-fos after longer exposure [2]: lasting c-fos downregulation; effect of drug alone on c-fos levels ([2]; without EGF, 1 hour): decreased c-fos levels; effect on EGF-induced c-fos increment [3, 21]: abrogated; c-fos after longer exposure [3]: lasting c-fos downregulation; effect of drug alone on c-fos levels ([3]; without EGF, 1 hour): decreased c-fos levels; c-fos levels with time compared to baseline [4]: minimally increased; effect of drug alone on c-fos levels ([4]; without EGF, 1 hour): no effect; c-fos levels with time compared to baseline [5]: minimally increased; effect of drug alone on c-fos levels ([5]; without EGF, 1 hour): no effect; tumor growth [14, 22]: growth arrest; effect on progressive increase in tumor c-fos expression [14, 20]: significantly abrogate; tumor growth response [15, 22]: no response; tumor c-fos levels ([15]; 14 days of therapy): unchanged; change in c-fos ([16]; patient #3, 500 mg/day (FIG. 7 legend)): increase; tumor c-fos after 28 days, of baseline values ([16]; two patients with decrease, 500 mg daily): 56% and 37%; reduction of Ki67 [17]: 45%; objective response [18]: No objective, confirmed responses

Question: Which results are given for “EGF: human epidermal growth factor 100 ng/mL (EGF; Sigma), EGFR ligand used as stimulus”?
Answer: c-fos mRNA level after brief exposure to EGF [1, 23]: 126 fold; c-fos mRNA level after brief exposure to EGF [2, 23]: 151 fold; c-fos mRNA level after brief exposure to EGF [3, 23]: 86 fold; c-fos increase upon exposure to EGF [4, 23]: 4.1 fold; c-fos increase upon exposure to EGF [5, 23]: 3.6 fold
